Source: patent US12678419B2, “Compounds” (Sitryx Therapeutics Limited, priority 2020, dated 2026)

What was measured:
[1] = system: IL-1β cytokine output from THP-1s; assay: THP-1 AlphaLISA IL-1β cytokine assay; format: cell-based
Procedure: (§1) The cytokine inhibition profiles of compounds of formula (I) were determined in a differentiated THP-1 cell assay. All assays were performed in RPMI-1640 growth medium (Gibco), supplemented with 10% fetal bovine serum (FBS; Gibco), 1% penicillin-streptomycin and 1% sodium pyruvate unless specified otherwise. The IL-1β and IL-6 cytokine inhibition assays were each run in a background of differentiated THP-1 cells as described below. All reagents described were from Sigma-Aldrich unless specified otherwise. Compounds were prepared as 10 mM DMSO stocks.
(§2) THP-1 cells were expanded as a suspension up to 80% confluence in appropriate growth medium. Cells were harvested, suspended, and treated with an appropriate concentration of phorbol 12-myristate 13-acetate (PMA) over a 72 hr period (37° C./5% CO2).
(§3) Following 72 hrs of THP-1 cell incubation, cellular medium was removed and replaced with fresh growth media containing 1% of FBS. Working concentrations of compounds were prepared separately in 10% FBS treated growth medium and pre-incubated with the cells for 30 minutes (37° C./5% CO2). Following the 30 minute compound pre-incubation, THP-1s were treated with an appropriate concentration of LPS and the THP-1s were subsequently incubated for a 24 hr period (37° C./5% CO2). An appropriate final concentration of Nigericin was then dispensed into the THP-1 plates and incubated for 1 hour (37° C./5% CO2) before THP-1 supernatants were harvested and collected in separate polypropylene 96-well holding plates.
(§4) Reagents from each of the IL-1β and IL-6 commercial kits (Perkin Elmer) were prepared and run according to the manufacturer's instructions. Subsequently, fluorescence signal detection in a microplate reader was measured (EnVision® Multilabel Reader, Perkin Elmer).
(§5) Percentage inhibition was calculated per cytokine by normalising the sample data to the high and low controls used within each plate (+/− LPS respectively). Percentage inhibition was then plotted against compound concentration and the 50% inhibitory concentration (IC50) was determined from the resultant concentration-response curve.

[2] = system: human hepatocytes; assay: Hepatocyte stability assay, human; format: in vitro ADME; details: 10 μM compound
From the text: (§6) Defrosted cryo-preserved hepatocytes (viability >70%) were used to determine the metabolic stability of a compound via calculation of intrinsic clearance (Clint; a measure of the removal of a compound from the liver in the absence of blood flow and cell binding). Clearance data are particularly important for in vitro work as they can be used in combination with in vivo data to predict the half-life and oral bioavailability of a drug.
(§7) The metabolic stability in hepatocytes assay involves a time-dependent reaction using both positive and negative controls. The cells were pre-incubated at 37° C. and spiked with test compound (and positive control); samples were taken at pre-determined time intervals were analysed to monitor the change in concentration of the initial drug compound over 60 minutes. A buffer incubation reaction (with no hepatocytes present) acted as a negative control and two cocktail solutions, containing compounds with known high and low clearance values (verapamil/7-hydroxycoumarin and propranolol/diltiazem), acted as positive controls. • 1. The assay was run with a cell concentration of 0.5×10^6 cells/mL in Leibovitz buffer. • 2. All compounds and controls were run in duplicate. • 3. Compound concentration was 10 μM. • 4. All compounds and controls were incubated with both cells and buffer to show turnover was due to hepatic metabolism. • 5. All wells on the incubation plate had 326.7 μL of either cells or buffer added. • 6. Prior to assay, cell and buffer-only incubation plates were preincubated for 10 mins at 37° C. • 7. The assay was initiated by adding compounds, 3.3 μL of 1 mM in 10% DMSO-90% Buffer; final DMSO concentration was 0.1%. • 8. Samples were taken at regular timepoints (0, 5, 10, 20, 40, 60 min) until 60 mins. • 9. Sample volume was 40 μL and was added to 160 μL of crash solvent (acetonitrile with internal standard) and stored on ice. • 10. At the end of the assay, the crash plates were centrifuged at 3500 rpm for 20 mins at 4° C. • 11. 80 μL of clear supernatant was removed and mixed with 80 μL of deionised water before being analysed by LC-MS/MS.
(§8) Raw LC-MS/MS data was exported to, and analysed in, Microsoft Excel for determination of intrinsic clearance. The percentage remaining of a compound was monitored using the peak area of the initial concentration as 100%. Intrinsic clearance and half-life values were calculated using a graph of the natural log of percentage remaining versus the time of reaction in minutes. Half-life (min) and intrinsic clearance (Clint in μL min^−1 10^−6 cells) values were calculated using the gradient of the graph (the elimination rate constant, k) and Equations 1 and 2.

[3] = system: mouse hepatocytes; assay: Hepatocyte stability assay, mouse; format: in vitro ADME; details: 10 μM compound
From the text: as §6, §7, §8

[4] = system: NRF2 (nuclear factor erythroid 2-related factor 2); assay: NRF2 +/-GSH activation assay (DiscoverX PathHunter NRF2 translocation kit, U2OS cells); format: cell-based; details: for Emax (%) +GSH / Emax (%) −GSH: normalised to dimethyl fumarate high control
[5] = system: IL-6 cytokine output from THP-1s; assay: THP-1 AlphaLISA IL-6 cytokine assay; format: cell-based; details: Homo sapiens, THP-1, differentiated THP-1 cells, LPS then nigericin; Table 1
Procedure: as §1, §2, §3, §4, §5

[6] = Homo sapiens, THP-1, differentiated THP-1 cells, LPS then nigericin, Table 1
[7] = differentiated THP-1 cells, LPS then nigericin, Table 1
[8] = Homo sapiens, THP-1, differentiated THP-1 cells, Table 2, compounds of formula (XVI)
[9] = differentiated THP-1 cells, Table 2, compounds of formula (XVI)

| Compound | Clint (μL min^−1 10^−6 cells) [2] [μL min^−1 10^−6 cells] | T½ [2] [min] | IC50 [1, 7] [µM] | Clint (μL min^−1 10^−6 cells) [3] [μL min^−1 10^−6 cells] | T½ [3] [min] | also measured |
| --- | --- | --- | --- | --- | --- | --- |
| C=C(CC(=O)OC1CCc2cc(Br)c(OC)cc21)C(=O)OCC(=O)O (single isomer, unassigned; enantiomer 1) [Example 12, 2-((4-((5-bromo-6-methoxy-2,3-dihydro-1H-inden-1-yl)oxy)-2-methylene-4-oxobutanoyl)oxy)acetic acid (Enantiomer 1)] |  |  |  |  |  | IC50 [1, 6]: 46.4 µM |
| C=C(CC(=O)OC1CCc2cc(Cl)cc(Cl)c2C1)C(=O)OCC(=O)O (single isomer, unassigned; enantiomer 2) [Example 11, 2-((4-((6,8-dichloro-1,2,3,4-tetrahydronaphthalen-2-yl)oxy)-2-methylene-4-oxobutanoyl)oxy)acetic acid (Enantiomer 2)] | 24 | 62 | 6.1 | 311 | 5 |  |
| C=C(CC(=O)OC1CCc2cc(Cl)cc(Cl)c21)C(=O)OCC(=O)O (single isomer, unassigned; enantiomer 2) [Example 9, 2-((4-((5,7-dichloro-2,3-dihydro-1H-inden-1-yl)oxy)-2-methylene-4-oxobutanoyl)oxy)acetic acid (Enantiomer 2)] | 4 | 428 | 11.7 | 61 | 21 | EC50 ([4]; +GSH): 20.6 µM; Emax (%) +GSH ([4]; +GSH): 204%; EC50 ([4]; −GSH): 8.1 µM; Emax (%) −GSH ([4]; −GSH): 244% |
| C=C(CC(=O)OC1CCc2c(Cl)cc(F)cc21)C(=O)OCC(=O)O (single isomer, unassigned; enantiomer 1) [Example 19, 2-((4-((4-chloro-6-fluoro-2,3-dihydro-1H-inden-1-yl)oxy)-2-methylene-4-oxobutanoyl)oxy)acetic acid (Enantiomer 1)] | 4 | 335 |  | 37 | 41 | EC50 ([4]; +GSH): 10.1 µM; Emax (%) +GSH ([4]; +GSH): 48%; EC50 ([4]; −GSH): 18.1 µM; Emax (%) −GSH ([4]; −GSH): 224%; IC50 [1, 6]: 2.2 µM |
| C=C(CC(=O)OC1CCc2cc(C(F)(F)F)ccc21)C(=O)O (centres unmarked) [Intermediate 37, 2-methylene-4-oxo-4-((5-(trifluoromethyl)-2,3-dihydro-1H-inden-1-yl)oxy)butanoic acid] |  |  |  |  |  | IC50 [1, 8]: 18.3 µM |
| C=C(CC(=O)OC1CCCc2cc(C(F)(F)F)ccc21)C(=O)O (single isomer, unassigned; enantiomer 2) [Intermediate 41, 2-methylene-4-oxo-4-((6-(trifluoromethyl)-1,2,3,4-tetrahydronaphthalen-1-yl)oxy)butanoic acid (Enantiomer 2)] |  |  |  |  |  | IC50 [1, 9]: 31.7 µM |
| C=C(CC(=O)OC)C(=O)OC [dimethyl itaconate, reference compound] |  |  |  |  |  | IC50 [1, 6]: > 100 µM; IC50 [1, 8]: > 100 µM; IC50 [5]: > 100 µM |
| C=C(CC(=O)OC1CCc2c(Cl)cc(Cl)cc21)C(=O)O (single isomer, unassigned; enantiomer 1) [Intermediate 25, 4-((4,6-dichloro-2,3-dihydro-1H-inden-1-yl)oxy)-2-methylene-4-oxobutanoic acid Enantiomer 1] |  |  |  |  |  | IC50 [1, 8]: 43.2 µM |
| C=C(CC(=O)OC1CCCc2cc(C(F)(F)F)ccc21)C(=O)O (single isomer, unassigned; enantiomer 1) [Intermediate 40, 2-methylene-4-oxo-4-((6-(trifluoromethyl)-1,2,3,4-tetrahydronaphthalen-1-yl)oxy)butanoic acid (Enantiomer 1)] |  |  |  |  |  | IC50 [1, 9]: 5.3 µM |
| C=C(CC(=O)OCCCCCCCC)C(=O)O [4-octyl itaconate, reference compound] | 401 | 4 |  | 351 | 4 |  |
| C=C(CC(=O)OC1CCc2cc(Cl)cc(Cl)c21)C(=O)OCC(=O)O (single isomer, unassigned; enantiomer 1) [Example 8, 2-((4-((5,7-dichloro-2,3-dihydro-1H-inden-1-yl)oxy)-2-methylene-4-oxobutanoyl)oxy)acetic acid (Enantiomer 1)] | 15 | 106 |  | 316 | 4 | EC50 ([4]; +GSH): 16.4 µM; Emax (%) +GSH ([4]; +GSH): 264%; EC50 ([4]; −GSH): 4.8 µM; Emax (%) −GSH ([4]; −GSH): 268%; IC50 [1, 6]: 10.6 µM |
| C=C(CC(=O)OC1CCc2cc(Br)c(OC)cc21)C(=O)OCC(=O)O (single isomer, unassigned; enantiomer 2) [Example 13, 2-((4-((5-bromo-6-methoxy-2,3-dihydro-1H-inden-1-yl)oxy)-2-methylene-4-oxobutanoyl)oxy)acetic acid (Enantiomer 2)] |  |  | 34.9 |  |  |  |
| C=C(CC(=O)OC1CCc2c(Br)cc(F)cc21)C(=O)OCC(=O)O (single isomer, unassigned; enantiomer 2) [Example 16, 2-((4-((4-bromo-6-fluoro-2,3-dihydro-1H-inden-1-yl)oxy)-2-methylene-4-oxobutanoyl)oxy)acetic acid (Enantiomer 2)] | 15 | 95 | 2.6 | >460 | <3 |  |
| C=C(CC(=O)OC1CCc2cc(Cl)c(Cl)cc21)C(=O)OCC(=O)O (single isomer, unassigned; enantiomer 2) [Example 6, 2-((4-((5,6-dichloro-2,3-dihydro-1H-inden-1-yl)oxy)-2-methylene-4-oxobutanoyl)oxy)acetic acid (Enantiomer 2)] | 8 | 207 | 9.9 | 69 | 19 | EC50 ([4]; +GSH): 17.4 µM; Emax (%) +GSH ([4]; +GSH): 215%; EC50 ([4]; −GSH): 8.3 µM; Emax (%) −GSH ([4]; −GSH): 242% |
